Experimental data reported in the supplement of paper PMC8149375.

Key:
Conditions in all cases: treatment: drug alone; 5 days
[1] = tested on: 769-P; experiment: GI50, drug alone; higher = less potent
Protocol: (§1)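 Primary HTS: 8 RCC cell lines treated with 8 doses (up to 10 uM) of each library drug alone for 5 days; viability read by CellTiter-Glo and normalised to DMSO. GI50 was fitted with XLfit (4-parameter), AUC is the area under the dose-response curve, and minimum viability is the lowest fraction of DMSO viability across doses.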

[2] = tested on: 786-O; experiment: GI50, drug alone; higher = less potent
Protocol: as §1

[3] = tested on: A498; experiment: GI50, drug alone; higher = less potent
Protocol: as §1

[4] = tested on: ACHN; experiment: GI50, drug alone; higher = less potent
Protocol: as §1

[5] = tested on: CAKI-1; experiment: GI50, drug alone; higher = less potent
Protocol: as §1

[6] = tested on: SN12C; experiment: GI50, drug alone; higher = less potent
Protocol: as §1

[7] = tested on: TK-10; experiment: GI50, drug alone; higher = less potent
Protocol: as §1

[8] = tested on: UO-31; experiment: GI50, drug alone; higher = less potent
Protocol: as §1

[9] = tested on: 769-P; experiment: minimum viability across doses, drug alone, relative to DMSO (fraction); higher = less growth inhibition
Protocol: as §1

[10] = tested on: 786-O; experiment: as above
Protocol: as §1

[11] = tested on: A498; experiment: as above
Protocol: as §1

[12] = tested on: ACHN; experiment: as above
Protocol: as §1

[13] = tested on: CAKI-1; experiment: as above
Protocol: as §1

[14] = tested on: SN12C; experiment: as above
Protocol: as §1

[15] = tested on: TK-10; experiment: as above
Protocol: as §1

[16] = tested on: UO-31; experiment: as above
Protocol: as §1

[17] = tested on: 769-P; experiment: AUC of dose-response viability curve, drug alone (arbitrary (AUC of normalised viability)); higher = less growth inhibition
Protocol: as §1

[18] = tested on: 786-O; experiment: as above
Protocol: as §1

[19] = tested on: A498; experiment: as above
Protocol: as §1

[20] = tested on: ACHN; experiment: as above
Protocol: as §1

[21] = tested on: CAKI-1; experiment: as above
Protocol: as §1

[22] = tested on: SN12C; experiment: as above
Protocol: as §1

[23] = tested on: TK-10; experiment: as above
Protocol: as §1

[24] = tested on: UO-31; experiment: as above
Protocol: as §1

SMILES	GI50, drug alone [1]	GI50, drug alone [2]	GI50, drug alone [3]	GI50, drug alone [4]	GI50, drug alone [5]	GI50, drug alone [6]	GI50, drug alone [7]	GI50, drug alone [8]	minimum viability across doses [9]	minimum viability across doses [10]	minimum viability across doses [11]	minimum viability across doses [12]	minimum viability across doses [13]	minimum viability across doses [14]	minimum viability across doses [15]	minimum viability across doses [16]	AUC of dose-response viability curve [17]	AUC of dose-response viability curve [18]	AUC of dose-response viability curve [19]	AUC of dose-response viability curve [20]	AUC of dose-response viability curve [21]	AUC of dose-response viability curve [22]	AUC of dose-response viability curve [23]	AUC of dose-response viability curve [24]
Cc1ccc(F)c(NC(=O)Nc2ccc(-c3cccc4[nH]nc(N)c34)cc2)c1 [Linifanib (ABT-869)]	> 10 µM	9.4 µM	> 10 µM	7.46 µM	9.96 µM	6.98 µM	5.72 µM	> 10 µM	0.503	0.472	0.672	0.279	0.497	0.242	0.309	1.08	3.21	3.03	3.32	3.34	3.49	3.28	2.99	4.69
C[C@]1(O)C[C@@H](c2nc(-c3ccc4ccc(-c5ccccc5)nc4c3)c3c(N)nccn32)C1 [Linsitinib (OSI-906)]	> 10 µM	> 10 µM	> 10 µM	> 10 µM	> 10 µM	> 10 µM	> 10 µM	> 10 µM	0.878	0.663	0.972	0.495	0.562	0.915	0.651	0.904	3.19	2.85	4.2	3.06	2.99	3.35	2.79	4.26
Cn1cnc(-c2cc3nccc(Oc4ccc(NC(=S)NC(=O)Cc5ccccc5)cc4F)c3s2)c1 [MGCD-265]	> 10 µM	> 10 µM	> 10 µM	> 10 µM	> 10 µM	> 10 µM	> 10 µM	> 10 µM	0.898	0.785	0.977	0.76	0.635	0.674	0.938	1.01	3.46	3.29	4.09	3.43	3.59	3.45	3.44	5.1
Cl.Cl.NC1(c2ccc(-c3nc4ccn5c(=O)[nH]nc5c4cc3-c3ccccc3)cc2)CCC1 [MK-2206 dihydrochloride]	> 10 µM	2.53 µM	> 10 µM	0.0672 µM	5.82 µM	> 10 µM	4.66 µM	9.92 µM	0.626	0.418	0.917	0.383	0.464	0.655	0.435	0.459	3.04	2.51	3.78	2.13	2.92	3.04	2.55	3.43
O=C(O)[C@]1(Cc2cccc(Nc3nccs3)n2)CC[C@@H](Oc2cccc(Cl)c2F)CC1 [MK-5108 (VX-689)]	2.61 µM	0.0304 µM	3.72 µM	0.854 µM	3.25 µM	1.32 µM	3.19 µM	0.908 µM	0.179	0.00733	0.41	0.262	0.419	0.154	0.404	0.0125	3.08	1.01	3.44	2.35	2.88	2.46	2.65	3.38
O=C(O)c1ccc(Nc2ncc3c(n2)-c2ccc(Cl)cc2C(c2c(F)cccc2F)=NC3)cc1 [MLN8054]	5.56 µM	0.523 µM	> 10 µM	1.83 µM	3.18 µM	6.21 µM	> 10 µM	> 10 µM	0.365	0.038	0.562	0.246	0.4	0.427	0.668	0.748	2.85	2.52	3.53	2.48	2.84	3.01	2.93	3.59
COc1cc(Nc2ncc3c(n2)-c2ccc(Cl)cc2C(c2c(F)cccc2OC)=NC3)ccc1C(=O)O [MLN8237 (Alisertib)]	0.888 µM	0.0711 µM	> 10 µM	0.207 µM	0.67 µM	3.14 µM	7.87 µM	> 10 µM	0.316	0.0512	0.569	0.194	0.221	0.458	0.492	0.531	2.44	1.47	3.27	1.81	2.31	2.85	2.78	3.14
Cc1ccc(NC(=O)c2ccc(CN3CCN(C)CC3)cc2)cc1Nc1nc(-c2cccnc2)cs1 [Masitinib (AB1010)]	> 10 µM	5.57 µM	> 10 µM	9.54 µM	> 10 µM	5.8 µM	> 10 µM	> 10 µM	0.749	0.168	0.635	0.482	0.784	0.292	0.651	1	3.32	3.22	3.2	3.23	3.47	3.01	3.39	4.02
CC1(C)CNc2cc(NC(=O)c3cccnc3NCc3ccncc3)ccc21.O=P(O)(O)O.O=P(O)(O)O [Motesanib Diphosphate]	> 10 µM	> 10 µM	> 10 µM	> 10 µM	> 10 µM	> 10 µM	> 10 µM	> 10 µM	0.943	0.777	0.86	0.818	0.756	0.832	0.757	0.976	3.53	3.26	3.77	3.4	3.36	3.19	3.09	4.68
FC(F)(F)c1ccc(/C=C/c2nc(COc3ccc(CCCCn4ccnn4)cc3)co2)cc1 [Mubritinib (TAK 165)]	> 10 µM	0.0329 µM	0.154 µM	0.116 µM	> 10 µM	0.0429 µM	0.147 µM	0.058 µM	0.586	0.0382	0.151	0.125	0.765	0.0401	0.21	0.033	2.86	1.04	2.12	1.78	2.96	1.14	1.78	1.39
Nc1ncnc2c1c(-c1cccc(OCc3ccccc3)c1)cn2[C@H]1C[C@H](CN2CCCC2)C1 [NVP-ADW742]	> 10 µM	5.94 µM	9.56 µM	3.35 µM	6.48 µM	> 10 µM	5.26 µM	8.26 µM	0.478	0.19	0.377	0.275	0.362	0.612	0.329	0.0137	3.14	2.71	3.59	2.38	3.01	3.2	2.63	3.24
COc1ccc(-c2ccc3ncc4c(c3c2)n(-c2ccc(N3CCNCC3)c(C(F)(F)F)c2)c(=O)n4C)cn1.O=C(O)/C=C\C(=O)O [NVP-BGT226]	0.0362 µM	0.0129 µM	0.0291 µM	0.0149 µM	0.0272 µM	0.0158 µM	0.0202 µM	0.0113 µM	0.00969	0.00447	0.0133	0.00135	0.00344	0.00358	0.00394	0.00819	1.22	0.728	1.21	0.785	1.03	0.857	0.903	0.578
Cc1ccc(C(=O)Nc2cccc(C(F)(F)F)c2)cc1Nc1nc(-c2cccnc2)nc2c1cnn2C [NVP-BHG712]	3.81 µM	0.809 µM	8.45 µM	1.9 µM	2.45 µM	4.56 µM	1.34 µM	8.28 µM	0.06	0.00203	0.023	0.109	0.0328	0.0886	0.0678	0.00612	3.13	2.18	3.97	2.89	3.03	3.15	2.45	5.14
Cl.Cl.Fc1cc(-c2cccc3ncc(-c4cnn(C5CCNCC5)c4)nc23)cc(F)c1CN1CCOCC1 [NVP-BSK805]	5.73 µM	3.95 µM	7.77 µM	1.6 µM	2.39 µM	7.39 µM	3.4 µM	8.51 µM	0.0465	0.00287	0.0305	0.0296	0.0193	0.331	0.212	0.00823	3.09	2.23	3.8	2.62	2.74	2.87	2.63	4.15
Cn1cc(-c2ccc3ncc(Cc4ccc5ncccc5c4)n3n2)cn1 [NVP-BVU972]	> 10 µM	0.589 µM	2.53 µM	1.32 µM	1.17 µM	1.4 µM	1.3 µM	1.4 µM	0.0466	0.00923	0.0174	0.0166	0.0623	0.0229	0.12	0.018	3.07	2.24	3.94	2.78	2.77	2.75	2.58	4.11
CNC(=O)c1ccccc1Nc1nc(Nc2ccc(N3CCOCC3)cc2OC)ncc1Cl [NVP-TAE226]	2.76 µM	0.0528 µM	> 10 µM	0.962 µM	1.36 µM	5.13 µM	0.551 µM	8.15 µM	0.29	0.00915	0.703	0.102	0.0558	0.295	0.102	0.398	2.93	1.15	4.76	2.43	2.64	2.95	2.12	3.21
